For this assay, the target named is Amyloid-beta precursor protein (Homo sapiens, UniProt P05067). The assay is described as follows: Displacement of [125I]IMPY from human beta amyloid plaque in brain homogenates. The format is tissue-based.

In ChEMBL document CHEMBL1139874, “New diphenylacetylenes as probes for positron emission tomographic imaging of amyloid plaques” (J Med Chem, 2007) one finds Ki data, which are given here for ten molecules.

Amyloid-beta precursor protein, sequence (P05067 whole entry): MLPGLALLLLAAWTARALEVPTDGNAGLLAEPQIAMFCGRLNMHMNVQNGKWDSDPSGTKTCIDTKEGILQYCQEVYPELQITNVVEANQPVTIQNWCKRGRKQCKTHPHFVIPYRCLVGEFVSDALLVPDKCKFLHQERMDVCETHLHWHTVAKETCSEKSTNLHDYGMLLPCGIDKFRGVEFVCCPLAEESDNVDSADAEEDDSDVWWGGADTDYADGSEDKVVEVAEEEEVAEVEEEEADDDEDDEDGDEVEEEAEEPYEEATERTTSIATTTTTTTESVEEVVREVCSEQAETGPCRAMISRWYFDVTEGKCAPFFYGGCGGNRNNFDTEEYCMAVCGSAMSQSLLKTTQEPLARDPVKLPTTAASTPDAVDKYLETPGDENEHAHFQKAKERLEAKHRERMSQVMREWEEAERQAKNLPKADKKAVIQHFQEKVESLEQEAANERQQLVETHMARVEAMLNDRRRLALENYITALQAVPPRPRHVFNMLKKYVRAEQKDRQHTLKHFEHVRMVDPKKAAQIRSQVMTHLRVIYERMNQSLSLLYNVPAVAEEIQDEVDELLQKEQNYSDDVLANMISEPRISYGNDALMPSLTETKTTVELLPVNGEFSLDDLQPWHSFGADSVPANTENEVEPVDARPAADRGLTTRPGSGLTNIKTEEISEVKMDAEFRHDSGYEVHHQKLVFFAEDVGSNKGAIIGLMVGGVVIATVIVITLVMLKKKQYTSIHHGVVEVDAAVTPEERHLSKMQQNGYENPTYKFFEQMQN

In turn, `CNc1ccc(C#Cc2ccc(OCCOCCOCCF)cc2)cc1` gave a Ki of 1.9 nM. For `Nc1ccc(C#Cc2ccc(OCCOCCOCCO)cc2)cc1` the value was 67.6 nM; for `CNc1ccc(C#Cc2ccc(OCCOCCOCCO)cc2)cc1`, 4.5 nM; for `Nc1ccc(C#Cc2ccc(O)cc2)cc1`, 106 nM.

As for `CNc1ccc(C#Cc2ccc(OCCOCCF)cc2)cc1`, the Ki is 1.2 nM. The figure for `Nc1ccc(C#Cc2ccc(OCCOCCOCCF)cc2)cc1` is 21.5 nM.

For the molecule `CNc1ccc(C#Cc2ccc(OCCOCCO)cc2)cc1`, the Ki stood at 3.1 nM. The molecule `CNc1ccc(C#Cc2ccc(O)cc2)cc1` came in with a Ki of 1.5 nM.

On to `Oc1ccc(C#Cc2ccc(OCCOCCOCCF)cc2)cc1`, for which the Ki was 16.5 nM. The figure for `CN(C)c1ccc(C#Cc2ccc(OCCOCCOCCF)cc2)cc1` is 2.9 nM.
